Results on 12 molecules are retold here after ChEMBL document CHEMBL5465560, “Selectivity Literature for EUbOPEN Chemogenomic Library” (2024).

In assay [1] the target is Cyclin-dependent kinase 9 (Homo sapiens, UniProt P50750). In words: Selectivity interaction (Ambit KINOMEscan and KiNATiv profiling in Jurkat cells) EUB0000090b CDK9. The class given is cell-based. As to conditions: at 1 µM.
For assay [2], the target named is T1, Rhodopsin kinase GRK7 (Homo sapiens) (UniProt Q8WTQ7).
T1 sequence (whole entry): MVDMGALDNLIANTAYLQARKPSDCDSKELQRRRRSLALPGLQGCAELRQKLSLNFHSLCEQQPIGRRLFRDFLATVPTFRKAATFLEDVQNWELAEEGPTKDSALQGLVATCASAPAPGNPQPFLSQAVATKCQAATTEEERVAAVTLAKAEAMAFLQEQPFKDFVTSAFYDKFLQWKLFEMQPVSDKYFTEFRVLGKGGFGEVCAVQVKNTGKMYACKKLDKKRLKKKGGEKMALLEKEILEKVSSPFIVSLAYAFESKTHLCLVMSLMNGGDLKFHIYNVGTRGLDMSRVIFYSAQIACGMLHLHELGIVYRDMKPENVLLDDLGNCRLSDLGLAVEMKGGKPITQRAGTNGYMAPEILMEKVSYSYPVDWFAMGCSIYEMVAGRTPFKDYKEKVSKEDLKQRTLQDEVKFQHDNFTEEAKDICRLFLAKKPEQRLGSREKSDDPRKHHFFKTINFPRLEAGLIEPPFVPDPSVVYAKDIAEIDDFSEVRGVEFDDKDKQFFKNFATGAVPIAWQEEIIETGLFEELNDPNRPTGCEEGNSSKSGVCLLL
As to conditions: at 10 µM.

Assay [3] deals with Dual specificity protein kinase CLK1 (Homo sapiens, UniProt P49759). The assay is described as follows: Selectivity interaction (KinomeScan (DiscoverX)) EUB0000655a CLK1. The note with it: at 10 µM.
The target in assay [4] is Ribosomal protein S6 kinase alpha-6 (Homo sapiens, UniProt Q9UK32). The assay is described as follows: Selectivity interaction (KinomeScan (DiscoverX)) EUB0000311b RPS6KA6. The note with it: at 1 µM.
Assay [5] concerns the target Serine/threonine-protein kinase WNK1 (Homo sapiens) (UniProt Q9H4A3). The assay is described as follows: Selectivity interaction (ActivX KiNativ screen (ex vivo kinase selectivity in human PBMCs)) EUB0001619a WNK1. It counts as cell-based. As to conditions: PBMC, at 1 µM.
In assay [6] the target is Macrophage colony-stimulating factor 1 receptor (Homo sapiens) (UniProt P07333). The assay is described as follows: Selectivity interaction (KinomeScan (DiscoverX)) EUB0001619a CSF1R. The note with it: at 1 µM.
The target in assay [7] is Focal adhesion kinase 1 (Homo sapiens, UniProt Q05397). The assay is described as follows: Selectivity interaction (ActivX KiNativ screen (kinase selectivity in THP-1 cell lysates)) EUB0000639a PTK2. The class given is subcellular. The note with it: lysate, at 0.01 µM.
Assay [8] deals with Platelet-derived growth factor receptor beta (Homo sapiens, UniProt P09619). The assay is described as follows: Selectivity interaction (KinomeScan (DiscoverX)) EUB0000699a PDGFRB. As to conditions: at 10 µM.
Assay [9] concerns the target Serine/threonine-protein kinase PAK 4 (Homo sapiens, UniProt O96013). In words: Selectivity interaction (KinomeScan (DiscoverX)) EUB0001049a PAK4. The note with it: at 1 µM.
Assay [10] concerns Receptor-type tyrosine-protein kinase FLT3 (Homo sapiens), P36888 [UNDEFINED MUTATION]. In words: Selectivity interaction (KinomeScan (DiscoverX)) EUB0000695a FLT3. The note with it: at 100 nM.
Assay [11] deals with T2, Interleukin-1 receptor-associated kinase 4 (Homo sapiens) (UniProt Q9NWZ3).
T2 sequence (whole entry): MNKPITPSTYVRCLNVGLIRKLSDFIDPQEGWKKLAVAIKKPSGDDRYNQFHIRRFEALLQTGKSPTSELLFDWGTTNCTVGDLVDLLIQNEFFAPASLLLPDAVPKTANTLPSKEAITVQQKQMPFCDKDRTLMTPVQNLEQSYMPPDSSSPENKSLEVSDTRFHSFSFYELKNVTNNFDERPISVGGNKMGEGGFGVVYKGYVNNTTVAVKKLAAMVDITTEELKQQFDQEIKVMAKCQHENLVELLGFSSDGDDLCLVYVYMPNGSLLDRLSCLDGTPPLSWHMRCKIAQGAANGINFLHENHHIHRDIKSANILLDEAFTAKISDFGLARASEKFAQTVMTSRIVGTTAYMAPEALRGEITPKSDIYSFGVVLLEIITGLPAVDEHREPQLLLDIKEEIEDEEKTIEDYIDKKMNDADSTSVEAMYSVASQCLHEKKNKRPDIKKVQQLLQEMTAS
The assay is described as follows: Selectivity interaction (KinomeScan (DiscoverX)) EUB0000092b IRAK4. The note with it: at 10 µM.

In assay [12] the target is T3, Mitogen-activated protein kinase kinase kinase 7 (Homo sapiens) (UniProt O43318).
T3 sequence (whole entry): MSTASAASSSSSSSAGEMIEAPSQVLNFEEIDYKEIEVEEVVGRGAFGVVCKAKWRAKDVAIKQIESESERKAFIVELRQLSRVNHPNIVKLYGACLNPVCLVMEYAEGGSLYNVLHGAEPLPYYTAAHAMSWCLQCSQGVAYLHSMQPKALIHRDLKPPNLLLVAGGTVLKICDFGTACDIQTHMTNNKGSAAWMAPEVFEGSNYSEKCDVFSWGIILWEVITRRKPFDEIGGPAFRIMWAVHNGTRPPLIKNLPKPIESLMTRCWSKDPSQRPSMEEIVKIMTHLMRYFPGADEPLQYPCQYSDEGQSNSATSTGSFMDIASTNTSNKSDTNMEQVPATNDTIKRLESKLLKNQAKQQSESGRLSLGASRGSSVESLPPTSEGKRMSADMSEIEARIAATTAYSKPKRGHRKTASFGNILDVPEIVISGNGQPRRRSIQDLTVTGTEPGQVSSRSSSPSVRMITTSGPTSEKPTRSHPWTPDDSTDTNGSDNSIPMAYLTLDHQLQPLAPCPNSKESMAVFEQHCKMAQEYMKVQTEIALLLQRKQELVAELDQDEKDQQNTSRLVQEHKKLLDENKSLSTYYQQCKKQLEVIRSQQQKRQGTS
In words: Selectivity interaction (KinomeScan (DiscoverX)) EUB0000045b MAP3K7.

Assay [13] deals with Mitogen-activated protein kinase kinase kinase 10 (Homo sapiens) (UniProt Q02779). In words: Selectivity interaction (KinomeScan (DiscoverX)) EUB0000045b MAP3K10.
For assay [14], the target named is Histone-lysine N-methyltransferase, H3 lysine-36 specific (Homo sapiens) (UniProt Q96L73). The assay is described as follows: Selectivity interaction (Methyltransferase screen (radiometric assays, panel of 8 PRMTs, 21 protein lysine methyltransferases, 3 DNA methyltransferases, and one RNA methyltransferase)) EUB0000272b NSD1. The note with it: at 1 µM.

Sequence of Mitogen-activated protein kinase kinase kinase 10 (Homo sapiens) (Q02779 whole entry, looked up): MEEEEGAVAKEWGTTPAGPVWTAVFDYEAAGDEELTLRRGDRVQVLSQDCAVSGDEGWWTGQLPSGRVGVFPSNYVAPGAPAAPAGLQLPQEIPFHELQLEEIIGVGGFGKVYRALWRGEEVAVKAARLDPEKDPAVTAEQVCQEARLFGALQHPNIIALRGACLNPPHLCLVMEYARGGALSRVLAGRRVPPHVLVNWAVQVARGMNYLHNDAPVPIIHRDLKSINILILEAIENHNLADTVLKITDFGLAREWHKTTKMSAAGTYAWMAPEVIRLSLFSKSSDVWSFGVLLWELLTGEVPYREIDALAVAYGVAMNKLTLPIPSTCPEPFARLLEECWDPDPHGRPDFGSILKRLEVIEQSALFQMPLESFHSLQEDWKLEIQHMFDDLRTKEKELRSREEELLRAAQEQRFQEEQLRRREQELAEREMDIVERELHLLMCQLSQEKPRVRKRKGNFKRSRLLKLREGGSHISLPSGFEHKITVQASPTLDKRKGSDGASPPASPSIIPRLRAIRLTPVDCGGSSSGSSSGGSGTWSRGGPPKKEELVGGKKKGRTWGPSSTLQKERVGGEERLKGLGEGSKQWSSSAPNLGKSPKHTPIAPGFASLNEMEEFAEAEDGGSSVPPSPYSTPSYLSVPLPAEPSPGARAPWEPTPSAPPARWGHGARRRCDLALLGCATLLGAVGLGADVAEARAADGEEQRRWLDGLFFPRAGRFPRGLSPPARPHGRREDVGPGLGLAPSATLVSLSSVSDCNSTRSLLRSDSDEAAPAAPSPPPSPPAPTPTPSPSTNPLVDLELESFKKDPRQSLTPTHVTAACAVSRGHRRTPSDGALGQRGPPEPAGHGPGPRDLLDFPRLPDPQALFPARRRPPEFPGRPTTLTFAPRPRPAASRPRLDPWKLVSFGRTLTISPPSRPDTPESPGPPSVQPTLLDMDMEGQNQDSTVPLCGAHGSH
Sequence of Receptor-type tyrosine-protein kinase FLT3 (Homo sapiens), P36888 [UNDEFINED MUTATION] (P36888 whole entry, looked up, change not shown): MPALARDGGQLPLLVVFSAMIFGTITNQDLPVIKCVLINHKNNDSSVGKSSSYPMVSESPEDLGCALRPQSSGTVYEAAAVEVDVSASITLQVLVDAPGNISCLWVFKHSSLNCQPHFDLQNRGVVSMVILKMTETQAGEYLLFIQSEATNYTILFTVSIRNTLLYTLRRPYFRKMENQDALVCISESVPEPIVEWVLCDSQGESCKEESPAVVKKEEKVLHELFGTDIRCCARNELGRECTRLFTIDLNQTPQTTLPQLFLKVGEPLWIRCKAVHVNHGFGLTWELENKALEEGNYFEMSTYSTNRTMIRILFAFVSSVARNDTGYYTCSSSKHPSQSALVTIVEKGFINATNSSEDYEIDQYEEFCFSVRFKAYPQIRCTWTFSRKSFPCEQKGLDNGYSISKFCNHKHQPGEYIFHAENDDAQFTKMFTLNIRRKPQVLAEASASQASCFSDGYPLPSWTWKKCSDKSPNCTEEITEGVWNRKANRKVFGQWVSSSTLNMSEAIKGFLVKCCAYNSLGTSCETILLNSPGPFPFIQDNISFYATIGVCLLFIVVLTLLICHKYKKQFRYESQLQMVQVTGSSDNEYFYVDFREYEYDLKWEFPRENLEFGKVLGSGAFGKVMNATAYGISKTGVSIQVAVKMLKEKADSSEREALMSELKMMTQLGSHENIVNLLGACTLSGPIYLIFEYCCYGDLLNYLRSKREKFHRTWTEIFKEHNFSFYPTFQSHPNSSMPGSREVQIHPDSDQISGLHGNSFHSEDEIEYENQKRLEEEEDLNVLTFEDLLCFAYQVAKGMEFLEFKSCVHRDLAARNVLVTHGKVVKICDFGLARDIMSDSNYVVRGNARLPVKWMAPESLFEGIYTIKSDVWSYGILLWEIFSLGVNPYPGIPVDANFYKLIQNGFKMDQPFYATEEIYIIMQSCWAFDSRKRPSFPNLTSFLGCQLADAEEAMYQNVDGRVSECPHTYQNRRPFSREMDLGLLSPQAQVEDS
Sequence of Dual specificity protein kinase CLK1 (P49759 whole entry, looked up): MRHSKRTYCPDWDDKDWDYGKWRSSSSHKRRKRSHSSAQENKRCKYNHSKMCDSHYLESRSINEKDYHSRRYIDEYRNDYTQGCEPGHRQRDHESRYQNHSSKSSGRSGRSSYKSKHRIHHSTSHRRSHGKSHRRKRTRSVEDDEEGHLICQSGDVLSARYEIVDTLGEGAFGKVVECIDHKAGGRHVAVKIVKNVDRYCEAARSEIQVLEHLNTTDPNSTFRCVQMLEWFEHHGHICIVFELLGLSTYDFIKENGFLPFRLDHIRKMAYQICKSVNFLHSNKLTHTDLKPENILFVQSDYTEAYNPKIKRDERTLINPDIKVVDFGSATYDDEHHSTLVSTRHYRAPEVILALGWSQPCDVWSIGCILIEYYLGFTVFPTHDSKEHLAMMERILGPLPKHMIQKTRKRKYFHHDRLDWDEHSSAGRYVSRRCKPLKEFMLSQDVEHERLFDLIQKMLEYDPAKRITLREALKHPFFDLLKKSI
Sequence of Ribosomal protein S6 kinase alpha-6 (Q9UK32 whole entry): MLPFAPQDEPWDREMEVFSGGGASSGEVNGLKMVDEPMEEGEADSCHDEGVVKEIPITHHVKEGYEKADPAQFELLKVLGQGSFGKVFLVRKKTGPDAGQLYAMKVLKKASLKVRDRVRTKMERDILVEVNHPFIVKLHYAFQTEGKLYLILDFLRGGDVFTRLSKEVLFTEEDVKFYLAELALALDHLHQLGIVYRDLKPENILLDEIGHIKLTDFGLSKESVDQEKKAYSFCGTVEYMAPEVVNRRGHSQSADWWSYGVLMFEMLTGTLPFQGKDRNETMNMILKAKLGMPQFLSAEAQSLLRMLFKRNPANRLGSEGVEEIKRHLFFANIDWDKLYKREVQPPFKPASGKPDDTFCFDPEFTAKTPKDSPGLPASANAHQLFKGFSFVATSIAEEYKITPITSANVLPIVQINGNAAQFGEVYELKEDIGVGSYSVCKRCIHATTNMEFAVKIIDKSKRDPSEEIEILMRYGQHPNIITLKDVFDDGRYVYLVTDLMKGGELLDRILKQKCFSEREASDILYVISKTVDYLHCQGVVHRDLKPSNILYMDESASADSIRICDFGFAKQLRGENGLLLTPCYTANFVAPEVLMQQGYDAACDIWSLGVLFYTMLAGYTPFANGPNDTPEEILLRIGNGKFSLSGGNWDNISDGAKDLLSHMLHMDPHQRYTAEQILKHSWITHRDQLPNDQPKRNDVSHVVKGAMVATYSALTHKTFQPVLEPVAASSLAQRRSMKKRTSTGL
Sequence of Platelet-derived growth factor receptor beta (P09619 whole entry): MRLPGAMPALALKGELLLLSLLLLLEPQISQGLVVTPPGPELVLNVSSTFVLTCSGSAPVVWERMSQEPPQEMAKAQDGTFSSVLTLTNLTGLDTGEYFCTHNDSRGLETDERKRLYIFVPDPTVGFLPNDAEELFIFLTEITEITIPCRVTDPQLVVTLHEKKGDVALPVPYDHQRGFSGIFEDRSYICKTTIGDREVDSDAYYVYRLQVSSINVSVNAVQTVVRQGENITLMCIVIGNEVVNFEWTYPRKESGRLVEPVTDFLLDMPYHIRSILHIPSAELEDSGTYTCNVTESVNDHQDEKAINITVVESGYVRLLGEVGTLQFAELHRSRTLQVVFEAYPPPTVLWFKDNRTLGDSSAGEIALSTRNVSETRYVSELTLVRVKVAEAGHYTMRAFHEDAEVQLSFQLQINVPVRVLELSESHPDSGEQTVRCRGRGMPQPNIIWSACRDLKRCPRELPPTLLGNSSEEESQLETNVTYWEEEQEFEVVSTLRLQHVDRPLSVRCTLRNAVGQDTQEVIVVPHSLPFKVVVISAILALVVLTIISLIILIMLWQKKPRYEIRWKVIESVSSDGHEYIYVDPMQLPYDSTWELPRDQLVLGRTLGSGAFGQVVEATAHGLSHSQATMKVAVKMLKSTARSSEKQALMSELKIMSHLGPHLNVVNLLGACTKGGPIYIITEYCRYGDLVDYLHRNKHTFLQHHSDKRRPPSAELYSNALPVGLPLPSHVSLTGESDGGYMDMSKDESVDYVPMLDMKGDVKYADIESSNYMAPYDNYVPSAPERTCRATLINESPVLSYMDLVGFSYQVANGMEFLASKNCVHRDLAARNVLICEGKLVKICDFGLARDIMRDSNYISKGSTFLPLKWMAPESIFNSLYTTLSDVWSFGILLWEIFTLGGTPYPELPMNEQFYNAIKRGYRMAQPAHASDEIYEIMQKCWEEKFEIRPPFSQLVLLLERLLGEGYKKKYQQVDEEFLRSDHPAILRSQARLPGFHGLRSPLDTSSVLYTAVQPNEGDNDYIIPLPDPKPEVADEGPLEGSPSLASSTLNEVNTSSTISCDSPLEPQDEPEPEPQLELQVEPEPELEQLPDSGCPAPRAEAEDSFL
Sequence of Serine/threonine-protein kinase PAK 4 (O96013 whole entry, looked up): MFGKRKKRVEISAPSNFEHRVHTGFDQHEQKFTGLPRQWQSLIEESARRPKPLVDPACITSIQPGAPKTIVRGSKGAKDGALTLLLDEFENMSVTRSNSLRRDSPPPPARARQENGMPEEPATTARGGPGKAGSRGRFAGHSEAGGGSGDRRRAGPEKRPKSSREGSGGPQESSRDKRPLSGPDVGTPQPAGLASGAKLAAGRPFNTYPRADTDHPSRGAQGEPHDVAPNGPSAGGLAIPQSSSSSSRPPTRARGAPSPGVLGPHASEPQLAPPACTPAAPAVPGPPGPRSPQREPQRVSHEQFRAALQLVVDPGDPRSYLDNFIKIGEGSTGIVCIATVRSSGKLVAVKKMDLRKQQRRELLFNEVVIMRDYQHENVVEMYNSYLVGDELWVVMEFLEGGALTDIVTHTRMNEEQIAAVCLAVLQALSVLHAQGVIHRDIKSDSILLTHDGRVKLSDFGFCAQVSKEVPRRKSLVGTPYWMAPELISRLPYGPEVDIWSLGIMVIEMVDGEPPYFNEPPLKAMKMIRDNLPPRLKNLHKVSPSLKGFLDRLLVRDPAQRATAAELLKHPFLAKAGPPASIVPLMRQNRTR

On to `CN(C)C/C=C/C(=O)Nc1ccc(C(=O)N2CCCC(Nc3ncc(Cl)c(-c4c[nH]c5ccccc45)n3)C2)cc1` (stereo unspecified), for which the % of control in assay [1] is 58%.
Take `Cc1cc([C@@H](C)Nc2ccccc2C(=O)O)c2nc(N3CCOCC3)cc(=O)n2c1` [AZD-6482]: the % of control in [2] stood at 57%.
For `CN(C)CCOc1ccc(-c2nc(-c3ccncc3)c(-c3ccc4c(c3)CC/C4=N\O)[nH]2)cc1`, the % of control in assay [3] was 77%.
For `CCc1ccccc1C(=O)Nc1n[nH]c2c(C)c(F)c(C3C(C#N)=C(C)N(C)C(C)=C3C#N)cc12` [BAY-3827], the % of control in [4] was 2.9%.
Regarding `N#Cc1cccc(-c2c[nH]c3ncnc(N4CCOCC4)c23)c1`, the % of inhibition in assay [5] was -1%. In addition, in [6], the % of control turned out to be 100%.
Turning to `CC[C@@H]1[C@H](F)C(=O)N[C@@H]1COc1nccc2cc(C(N)=O)c(OC)cc12` [ZIMLOVISERTIB], in assay [7], the % of inhibition is -47.2%.
In assay [8], `CCN(CC)CCCCNc1ncc2cc(-c3cc(OC)cc(OC)c3)c(NC(=O)NC(C)(C)C)nc2n1` yielded a % of control of 38%.
In [9], `COc1cc(Nc2nc(C)cc(-c3cnn4nc(OC)ccc34)n2)cc(C(F)(F)F)c1` yielded a % of control of 88%.
In assay [10], `Cc1cc(F)c(C(=O)Nc2cccc(-c3nncn3C(C)C)n2)cc1-n1cnc(C2CC2)c1` gave a % of control of 76%.
On to `CCC(=O)N1CCN(c2ccc(-n3c(=O)ccc4cnc5ccc(-c6cnc7ccccc7c6)cc5c43)cc2C(F)(F)F)CC1`, for which the % of control in assay [11] was found to be 90%.
On to `C=CC(=O)Nc1cc(-n2c(=O)ccc3cnc4ccc(-c5ccc(NS(C)(=O)=O)cc5)cc4c32)ccc1C`, for which the % of control came out at 83% in [12] (at 1 µM), 78% in assay [12] (at 10 µM), 100% in [13] (at 1 µM) and 100% in assay [13] (at 10 µM).
In the case of `Cc1cc(C)cc([C@H]2c3cc(C)ccc3NC(=O)CN2C(=O)c2ccc(Br)s2)c1`, the % of activity in [14] is 97.7%.
